Values joined by “and” are separate entries in the source; they are usually repeats but may differ in a detail not shown here. Equal entries are not always repeated. Where two headings read alike, the source gives them in different places.
Assays:
[1] = system: soybean plants containing DMO-encoding polynucleotide construct (Events 1-5)
From the text: Non-transgenic and transgenic soybean seeds were planted around the beginning of the growing season at the time of optimum growth conditions depending on soil moisture, temperature, and seeding depth. […] The design details were as follows: 6 locations, 2 replications/location, 2 rows/plot, row length 12 feet (+3 ft alley), 9 seeds/foot, 108 seeds/row, 5 events (Events 1-4 and a fifth event that was segregating); and 4 treatments as shown below in Table 5. In all 240 plots were planted at 6 locations (40 per location).
Four non-transgenic border rows were planted all around the trial using a known commercial line such as A3525. Optimum production and management practices known in the art were followed. […] The field was irrigated as needed according to standard practices.
Seed planting and pre-emergence treatment were carried out approximately one-month apart in late spring in Monmouth, Ill.

Marestail Resistant (KY) = test: Dicamba, glyphosate and their combination on marestail; type: in vivo, Conyza canadensis; conditions: dicamba formulation 40 g/ha
[2] = Event 1, Post at V3: 1.5 lb/acre 4 weeks after planting
[3] = Event 1, Pre & Post: 1.5 lb/acre at planting and 1.5 lb/acre 4 weeks after planting
[4] = Event 1, Pre at sowing: 1.5 lb/acre at planting
[5] = Event 2, Post at V3: 1.5 lb/acre 4 weeks after planting
[6] = Event 2, Pre & Post: 1.5 lb/acre at planting and 1.5 lb/acre 4 weeks after planting
[7] = Event 2, Pre at sowing: 1.5 lb/acre at planting
[8] = Event 3, Post at V3: 1.5 lb/acre 4 weeks after planting
[9] = Event 3, Pre & Post: 1.5 lb/acre at planting and 1.5 lb/acre 4 weeks after planting
[10] = Event 3, Pre at sowing: 1.5 lb/acre at planting
[11] = Event 4, Post at V3: 1.5 lb/acre 4 weeks after planting
[12] = Event 4, Pre & Post: 1.5 lb/acre at planting and 1.5 lb/acre 4 weeks after planting
[13] = Event 4, Pre at sowing: 1.5 lb/acre at planting
[14] = Event 5 (segregating), Post at V3: 1.5 lb/acre 4 weeks after planting
[15] = Event 5 (segregating), Pre & Post: 1.5 lb/acre at planting and 1.5 lb/acre 4 weeks after planting
[16] = Event 5 (segregating), Pre at sowing: 1.5 lb/acre at planting

`COc1c(Cl)ccc(Cl)c1C(=O)O` [dicamba, 3,6-dichloro-o-anisic acid] was tested, and the “% GR 6/27” value [1, 2] was 0%, the “% GR 7/5” value [1, 2] was 0% and the “% Inj 6/7” value [1, 2] was 0%. For the same compound, the “% Inj 6/13” value [1, 2] was 0%, the “% Inj 6/20” value [1, 2] was 0% and the “% Inj 6/27” value [1, 2] was 5% and 7%. For the same compound, the “% Inj 7/5” value [1, 2] was 0%, the “% GR 6/27” value [1, 3] was 0% and 3% and the “% GR 7/5” value [1, 3] was 0%. The “% Inj 6/7” value [1, 3] was 0%, the “% Inj 6/13” value [1, 3] was 0% and 2% and the “% Inj 6/20” value [1, 3] was 0% and 2%. The “% Inj 6/27” value [1, 3] was 5%, the “% Inj 7/5” value [1, 3] was 0% and the “% GR 6/27” value [1, 4] was 0%. For the same compound, the “% GR 7/5” value [1, 4] was 0%, the “% Inj 6/7” value [1, 4] was 0% and the “% Inj 6/13” value [1, 4] was 0% and 2%. The “% Inj 6/20” value [1, 4] was 0%, the “% Inj 6/27” value [1, 4] was 1% and 2% and the “% Inj 7/5” value [1, 4] was 0%. The “Dead or Stunted” value [1, 4] was 0, the “% GR 6/27” value [1, 5] was 0% and the “% GR 7/5” value [1, 5] was 0%. The “% Inj 6/7” value [1, 5] was 0%, the “% Inj 6/13” value [1, 5] was 0% and the “% Inj 6/20” value [1, 5] was 0%. For the same compound, the “% Inj 6/27” value [1, 5] was 3%, the “% Inj 7/5” value [1, 5] was 0% and 2% and the “% GR 6/27” value [1, 6] was 0%. The “% GR 7/5” value [1, 6] was 0%, the “% Inj 6/7” value [1, 6] was 0% and the “% Inj 6/13” value [1, 6] was 0%. The “% Inj 6/20” value [1, 6] was 0%, the “% Inj 6/27” value [1, 6] was 1% and 2% and the “% Inj 7/5” value [1, 6] was 2% and 0%. For the same compound, the “Dead or Stunted” value [1, 6] was 0, the “% GR 6/27” value [1, 7] was 0% and the “% GR 7/5” value [1, 7] was 0%. The “% Inj 6/7” value [1, 7] was 0%, the “% Inj 6/13” value [1, 7] was 0% and the “% Inj 6/20” value [1, 7] was 0%. For the same compound, the “% Inj 6/27” value [1, 7] was 5% and 2%, the “% Inj 7/5” value [1, 7] was 0% and the “Dead or Stunted” value [1, 7] was 0. For the same compound, the “% GR 6/27” value [1, 8] was 3% and 0%, the “% GR 7/5” value [1, 8] was 0% and the “% Inj 6/7” value [1, 8] was 0%. The “% Inj 6/13” value [1, 8] was 0%, the “% Inj 6/20” value [1, 8] was 0% and the “% Inj 6/27” value [1, 8] was 3% and 5%. For the same compound, the “% Inj 7/5” value [1, 8] was 0% and 3%, the “Dead or Stunted” value [1, 8] was 0 and the “% GR 6/27” value [1, 9] was 0%. For the same compound, the “% GR 7/5” value [1, 9] was 0%, the “% Inj 6/7” value [1, 9] was 0% and the “% Inj 6/13” value [1, 9] was 0% and 2%. For the same compound, the “% Inj 6/20” value [1, 9] was 0%, the “% Inj 6/27” value [1, 9] was 3% and the “% Inj 7/5” value [1, 9] was 2% and 0%. For the same compound, the “Dead or Stunted” value [1, 9] was 0, the “% GR 6/27” value [1, 10] was 0% and the “% GR 7/5” value [1, 10] was 0%. The “% Inj 6/7” value [1, 10] was 0%, the “% Inj 6/13” value [1, 10] was 4% and 2% and the “% Inj 6/20” value [1, 10] was 0%. The “% Inj 7/5” value [1, 10] was 0% and 3%, the “Dead or Stunted” value [1, 10] was 0 and the “% GR 6/27” value [1, 11] was 0%. For the same compound, the “% GR 7/5” value [1, 11] was 0%, the “% Inj 6/7” value [1, 11] was 0% and the “% Inj 6/13” value [1, 11] was 0%. The “% Inj 6/20” value [1, 11] was 0%, the “% Inj 6/27” value [1, 11] was 3% and the “% Inj 7/5” value [1, 11] was 0%. For the same compound, the “Dead or Stunted” value [1, 11] was 0, the “% GR 6/27” value [1, 12] was 8% and 3% and the “% GR 7/5” value [1, 12] was 2% and 0%. The “% Inj 6/7” value [1, 12] was 0%, the “% Inj 6/13” value [1, 12] was 0% and 1% and the “% Inj 6/20” value [1, 12] was 0%. The “% Inj 6/27” value [1, 12] was 3%, the “% Inj 7/5” value [1, 12] was 2% and 0% and the “Dead or Stunted” value [1, 12] was 0. For the same compound, the “% GR 6/27” value [1, 13] was 0%, the “% GR 7/5” value [1, 13] was 0% and the “% Inj 6/7” value [1, 13] was 0%. The “% Inj 6/13” value [1, 13] was 3% and 4%, the “% Inj 6/20” value [1, 13] was 0% and the “% Inj 6/27” value [1, 13] was 5% and 2%. The “% Inj 7/5” value [1, 13] was 0%, the “Dead or Stunted” value [1, 13] was 0 and the “% GR 6/27” value [1, 14] was 0% and 5%. The “% GR 7/5” value [1, 14] was 0%, the “% Inj 6/7” value [1, 14] was 0% and the “% Inj 6/13” value [1, 14] was 0%. For the same compound, the “% Inj 6/20” value [1, 14] was 0%, the “% Inj 6/27” value [1, 14] was 7% and 5% and the “% Inj 7/5” value [1, 14] was 2%. The “Dead or Stunted” value [1, 14] was 15, the “% GR 6/27” value [1, 15] was 5% and 0% and the “% GR 7/5” value [1, 15] was 0%. For the same compound, the “% Inj 6/7” value [1, 15] was 0%, the “% Inj 6/13” value [1, 15] was 15% and 10% and the “% Inj 6/20” value [1, 15] was 10%. For the same compound, the “% Inj 6/27” value [1, 15] was 3% and 1%, the “% Inj 7/5” value [1, 15] was 0% and the “Dead or Stunted” value [1, 15] was 23 and 20. The “% GR 6/27” value [1, 16] was 0%, the “% GR 7/5” value [1, 16] was 0% and the “% Inj 6/7” value [1, 16] was 0%. The “% Inj 6/13” value [1, 16] was 15% and 8%, the “% Inj 6/20” value [1, 16] was 15% and 10% and the “% Inj 6/27” value [1, 16] was 5% and 2%. The “% Inj 7/5” value [1, 16] was 0%, the “Dead or Stunted” value [1, 16] was 24 and 14 and the “injury in field, overall” value ([1]; pre- and post-emergence applications of dicamba, all transgenic soybean plants) was “no or very little injury”. The “% Injury (18 DAT)” value (Marestail Resistant (KY)) was “about 52%”.

Source: patent US8629328B2 (Monsanto Technology LLC, priority 2006, dated 2014)
